Usually viability stands for a per cent measure of how many cells are alive, often set against a control. The term Ki denotes a measure of affinity in units of concentration, obtained from inhibition or displacement. As a reminder, the IC50 is the concentration that gives 50% inhibition.

Each structure is given as a SMILES string.

In one data set the test system is rats. Kind of data set: Forced swim test (FST). Type of data set: in vivo, male Wistar rats. To be noted: rat; for effect on immobility in FST / Immobility time: acute 1 mg/kg i.p.; for Immobility time: 60 min before test, 5 min session, vehicle 255.9 ± 8.6. On the procedure:
The rats were injected for 21 consecutive days at a dose of 1 mg/kg, similar to the dose used in acute treatment, as per data presented in Supplementary Materials (Table S1). The FST was conducted according to the method of Porsolt. On the first day of the experiment, the animals were gently placed individually for 15 min in Plexiglas cylinders (40 cm high, 18 cm in diameter) containing 15 cm of water maintained at 23–25 °C. On removal from water, the rats were placed for 30 min in a Plexiglas box under a 60 W bulb to dry. On the following day (24 h later), the rats were replaced in the cylinder and the total duration of immobility was recorded during the whole 5 min test period. Immobility was assigned when no additional activity was observed other than that necessary to keep the rat’s head above the water. Fresh water was used for each animal.
FST after acute administration of the investigated compounds
Rats were injected 60 min before the test at a dose of 1 mg/kg. FST was carried out according to the method of Porsolt, and the same procedure was used for chronic treatment.
Table S1. Effect of acute treatment of PQA-AZ4, PQA-AZ6, and PQ-10 on the immobility time in the […]
Compound (mg/kg) Immobility time (s)
Compounds were injected i.p. 60 min before the test. Values represent the means ± SEM of immobility in the FST during a 5 min test session. The data were analyzed using one -way ANOVA, followed by Bonferroni‘s post hoc test; NS = nonsignificant; N=7-8.

For the next data set, the system named is Bdnf gene. The data set can be described thus: Bdnf gene expression in brain structures (RT-qPCR, ex vivo). To be noted: rat, 1 mg/kg/day i.p., 21 days; for Bdnf expression upregulation vs control, hippocampus: hippocampus (Hipp); for Bdnf expression upregulation vs control, prefrontal cortex: prefrontal cortex (PFX). Set-up: species or system rats. As for the experimental part: Animals in all treatment groups were sacrificed by rapid decapitation immediately after the behavioral tests, when the brains and blood samples were collected. For quantitative reverse transcription-polymerase chain reaction (RT-qPCR), the brains of rats were rapidly removed, and the hippocampus and prefrontal cortex were dissected on an ice-cold glass plate. The tissues were frozen in dry ice and stored at −80 °C until required.
The total RNA was extracted from tissues using an RNA Isolation kit (Thermo Fisher Scientific, Rockford, IL, USA), and its concentration was normalized to 20 ng/μL. Reverse transcription was performed with a High-Capacity Reverse Transcription Kit (Life Technologies, Grand Island, NY, USA). A qPCR fast 96-well reaction plate was used for the process with TaqMan Gene Expression assay (Life Technologies) for brain-derived neurotrophic factor Bdnf (Rn02531967_s1) on an Applied Biosystems® 7500 Fast Real-Time PCR Instrument (Applied Biosystems, Foster City, CA, USA), according to the manufacturer’s protocol. Glyceraldehyde-3-phosphate dehydrogenase, Gapdh (Rn01775763_g1), was selected as endogenous control, based on the pilot experiment. Relative normalized expression was calculated using the ΔΔCq method.
(Real-time PCR tracks product formation cycle by cycle.)

A short description of a further data set: Body weight measurement. Type of data set: in vivo, rats. To be noted: rat, 20-day administration, 1 mg/kg/day i.p. On the procedure:
Body weight was measured every second day, immediately before the administration of drugs.

Data set [1] is described as follows: Serum glucose, triglyceride and cholesterol concentrations. Type of data set: in vivo, rats. To be noted: rat, 1 mg/kg/day i.p., 21 days. As for the experimental part: (§1) The blood samples were collected immediately after decapitation and then centrifuged at 600× g […], 4 °C, to separate the plasma. The blood was used to determine metabolic parameters such as glucose, cholesterol, and triglyceride levels, together with liver enzymatic activity.
Standard enzymatic spectrophotometric tests (Biomaxima S.A., Lublin, Poland) were used to determine glucose, cholesterol, and triglyceride levels in the serum. In the presence of an appropriate enzyme, the substrate was converted to a colored compound. Absorbance was measured at a wavelength of 500 nm.

The nature of data set [2]: Liver enzymatic activity in serum (AlaT, AspaT, γGTP, ALP). The class given is in vivo, rats. To be noted: rat, 1 mg/kg/day i.p.; for activity of AlaT, AspaT, γGTP, ALP in serum: three-week administration. As for the experimental part: as §1
To determine alanine aminotransferase (AlaT), […] (AspaT), alkaline phosphatase (ALP), or gamma-glutamyl transpeptidase (γGTP) activities in the serum, a standard enzymatic spectrophotometric test (Biomaxima S.A., Lublin, Poland) was used. Absorbance was measured at a wavelength of 340 nm (AlaT, AspaT) or 405 nm (ALP, γGTP).

The nature of data set [3]: Ferric-reducing antioxidant power (FRAP) of serum. Type of data set: in vivo, rats. To be noted: rat, 1 mg/kg/day i.p., 21 days. As for the experimental part: The assay was performed according to Benzie and Strain [46] with some modifications. The FRAP working solution was prepared before the start of the analysis, namely, 0.3 mol acetate buffer (pH 3.6), 0.01 mol TPTZ (2,4,6-tripyridyl-s-triazine; Sigma-Aldrich) in 0.04 mol HCl (POCh, Gliwice, Poland), and 0.02 M FeCl3×6H2O in water (iron (III) chloride hexahydrate; Chempur, Piekary Śląskie, Poland) were mixed in a volumetric ratio of 10:1:1 and protected from light.
Next, 20 µL of the plasma sample tested, brain homogenate, or FeSO4×7H2O solution was mixed with 180 µL of the FRAP working solution. The mixtures obtained were incubated at 37 °C for 30 min and their absorbance was measured at 593 nm. FeSO4×7H2O (100–1000 µM/L) was used for a calibration curve. Deionized water with FRAP solution was used as a blank.

Data set [4] is described as follows: MTT cytotoxicity on normal human dermal fibroblast cells. Type of data set: cell-based. To be noted: NHDF cells (normal human dermal fibroblasts), highest tested concentration (75 μM), read-out: cell viability. The source says: Alpha-MEM and the normal human dermal fibroblast cell line (NHDF) were obtained from Lonza (Lonza, Warsaw, Poland). Phosphate-buffered saline (PBS), fetal bovine serum (FBS), L-glutamine, and 100× antibiotic–antimycotic were from Cytogene (Zgierz, Poland). MTT (3-(4,5-dimethylthiazol-2-yl)-2,5-diphenyltetrazolium bromide) was from Sigma-Aldrich (Poznan, Poland) and DMSO was purchased from Archem (Kamieniec Wroclawski, Poland).
The viability of NHDF cells after treatment with PQA-AZ4 and PQA-AZ-6 was assayed using the previously described methodology. Briefly, 4.5 × 10^3 cells/well were seeded into a 96-multiwell plate and viability was evaluated using the MTT assay. Different volumes of each compound dissolved in DMSO (final concentrations 4.68, 9.37, 18.75, 37.5, and 75 μM, respectively), as well as DMSO itself as solvent control, were added to each well, mixed, and incubated for 48 h. Finally, the optical density was measured at 560 nm with a reference wavelength of 670 nm using an Asys UVM 340 Microplate Reader (Cambridge, UK). Results were expressed as the percentage of survival cells concerning the control (not treated cells).

In a further data set the target is 5-HT7R. Set-up: method as in PMID 35248836. To be noted: read-out: Affinity 5-HT7R Ki; cited from earlier work.
For another data set, the system named is PDE10A. Set-up: method as in PMID 35248836. To be noted: read-out: Inhibition PDE10A IC50; cited from earlier work.
A further data set deals with 5-HT1AR. Set-up: method as in PMID 35248836. To be noted: cited from earlier work.
Where [5] appears, read: chronic 1 mg/kg/day i.p., 21 days.

As for `COc1cccc(N2CCN(CC3CCN(c4ncnc5cc(OC)c(OC)cc45)C3)CC2)c1` (stereo not shown) [PQA-AZ4, 6,7-Dimethoxy-4-(3-((4-(3-methoxyphenyl)piperazin-1-yl)methyl)pyrrolidin-1-yl)quinazoline], in the data set with rats, the “effect on immobility in FST” value was “did not change the immobility” and the Immobility time was 244.8 ± 8.9 s. In addition, the “antidepressant-like activity in FST” value in the data set on rats (setting [5]) was “inactive”. In the data set with Bdnf gene, the “Bdnf expression upregulation vs control, hippocampus” value is given as “about 2.8 fold” and the “Bdnf expression upregulation vs control, prefrontal cortex” value is “about 10 fold”. The “weight gain vs vehicle” value in “Body weight measurement” is recorded as “No significant effect”. For the same compound, in [1], the “serum glucose concentration vs vehicle” value is given as “did not significantly change”, the “serum triglycerides concentration vs vehicle” value is “did not significantly change” and the “total cholesterol concentration vs vehicle” value is listed as “slight but statistically significant (p < 0.05) increase”. In addition, the “activity of AlaT, AspaT, γGTP, ALP in serum” value in [2] was “no significant changes”. For the same compound, the “total antioxidant activity of serum (Fe2+ formed, FRAP) vs control” value in data set [3] is reported as “comparable”. Besides, in data set [4], the viability at 48 h, 75 µM amounted to 19.9%. Besides, the inhibition constant Ki on 5-HT7R is 234 nM. In addition, the IC50 with PDE10A was 7070 nM. Further, the “Functional profile at 5-HT1AR” value in the data set on 5-HT1AR is listed as “partial agonists”.

As to `COc1cc2ncnc(N3CCC(CN4CCN(c5ccc(Cl)cc5)CC4)C3)c2cc1OC` (stereo not shown) [PQA-AZ6, 4-(3-((4-(4-Chlorophenyl)piperazin-1-yl)methyl)pyrrolidin-1-yl)-6,7-dimethoxyquinazoline], in the data set on rats, the “effect on immobility in FST” value is on record as “did not change the immobility” and the Immobility time came to 255.4 ± 7.0 s. Also, in the data set with rats (setting [5]), the “antidepressant-like activity in FST” value is reported as “showed antidepressant-like properties” and the “decrease of immobility vs. control group in FST” value is listed as “about 11%”. Moreover, in the data set with Bdnf gene, the “Bdnf expression upregulation vs control, hippocampus” value is on record as “about 33 fold” and the “Bdnf expression upregulation vs control, prefrontal cortex” value was around 12 fold. The “weight gain vs vehicle” value in the data set “Body weight measurement” is “No significant effect”. Further, in [1], the “serum glucose concentration vs vehicle” value is “did not significantly change” and the “serum triglycerides concentration vs vehicle” value was “did not significantly change”. For the same compound, in [2] (21 days), the “γGTP activity in serum vs control” value was “significantly lower”. The “activity of AlaT, AspaT, γGTP, ALP in serum” value in data set [2] was “no significant changes”. Moreover, the “total antioxidant activity of serum (Fe2+ formed, FRAP) vs control” value in [3] is recorded as “comparable”. Also, the viability at 48 h, 75 µM in [4] came to 84%. Moreover, the Ki at 5-HT7R is 136 nM. For the same compound, the IC50 in the data set with PDE10A is 5680 nM. Moreover, the “Functional profile at 5-HT1AR” value in the data set on 5-HT1AR was “partial agonists”.

The values are drawn from publication PMC9569954, “The Antidepressant-like Activity, Effects on Recognition Memory Deficits, Bioavailability, and Safety after Chronic Administration of New Dual-Acting Small Compounds Targeting Neuropsychiatric Symptoms in Dementia” (International Journal of Molecular Sciences, 2022).
